Holding throughout (assay type): in vitro ADME
Data set [1] deals with T1, CYP2B6 (Homo sapiens, UniProt P20813).
T1 sequence (P20813 1-491): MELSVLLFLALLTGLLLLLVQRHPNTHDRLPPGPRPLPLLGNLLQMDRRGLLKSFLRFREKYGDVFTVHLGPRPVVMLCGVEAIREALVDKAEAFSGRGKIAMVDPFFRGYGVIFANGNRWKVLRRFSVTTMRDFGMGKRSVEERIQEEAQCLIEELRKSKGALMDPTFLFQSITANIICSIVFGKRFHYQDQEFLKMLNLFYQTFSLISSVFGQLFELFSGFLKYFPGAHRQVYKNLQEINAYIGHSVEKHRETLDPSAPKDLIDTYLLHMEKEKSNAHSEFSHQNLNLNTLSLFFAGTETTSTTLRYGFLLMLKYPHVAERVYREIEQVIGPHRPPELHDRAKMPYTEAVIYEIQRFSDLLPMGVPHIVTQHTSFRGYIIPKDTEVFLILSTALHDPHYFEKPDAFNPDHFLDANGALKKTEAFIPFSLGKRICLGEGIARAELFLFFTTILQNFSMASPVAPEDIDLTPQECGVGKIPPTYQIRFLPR
The data set is described as follows: in vitro. The following applies: pH 7.4, Carbofuran metabolic pathway, rCYP2B6. Further details: purchased BD Biosciences Discovery Labware (Bedford, MA); host or cells: baculovirus-infected insect cells. As to the method: Furathiocarb was incubated with recombinant CYPs (rCYP). The incubation mixture contained rCYPs (50 pmol CYP per ml), 100 µM furathiocarb, and 1 mM NADPH in 200 µl 0.1 M phosphate buffer (pH 7.4). Incubation procedures and chromatographic separation are presented in Supplementary materials.
Enzyme kinetic parameters of both the microsomal samples and rCYP enzymes were measured. The incubation mixture contained furathiocarb (2.5, 10, 25, 50, 150 and 300 µM). Incubation times were 20 and 30 min for microsomal samples and rCYPs, respectively. Otherwise incubation mixtures and methods were the same as in metabolite identification. The rate of sum of furathiocarb metabolite formation was linear at least up to 0.15 mg protein/ml and 30 min incubation time in the standard experimental conditions.
To measure the main furathiocarb metabolites of recombinantly expressed CYP enzymes (rCYPs), the standard incubation mixture (200 µl) contained 0.1 M phosphate buffer (pH 7.4), 1 mM NADPH, 100 µM […], and rCYPs (50 pmol CYP per ml). Incubations were carried out according to the manufacturer’s instructions. Shortly, the reaction was started by adding recombinant enzymes to the preincubated eaction mixture (2 min at +37 ◦C), mixed gently and incubated for 30 min at +37 ◦C in an incubator block without agitation. […]

The target in data set [2] is T1, CYP2B6. The data set is described as follows: biochemical. On the set-up: from tissue; host or cells: pooled human liver microsomes (n = 10 donors). As to the method: (§1) N-in-one (“cocktail”) assay for measuring major CYP activities simultaneously, [55], [56] was employed to investigate human CYP-furathiocarb inhibitory interactions in pooled human hepatic microsomes. Furathiocarb (ﬁnal concentrations in the incubation mixture were 1, 5, 25, 50, and 100 µM) was added to the incubation mixture. The N-in-one was used earlier for the study of pesticide interactions and the details of the incubations with furathiocarb are described in Supplementary materials.
(§2) The kinetic parameters Vmax and Km were calculated by nonlinear regression. Bivariate linear Pearson’s correlation coefﬁcients (r2) were calculated between metabolite formations and model activities in the livers. GraphPad Prism 9 Software (Inc., San Diego, CA) Prism 9.0.0 (San Diego, CA) was used for kinetic parameters and correlation coefﬁcients analysis. The IC50 values were determined by linear regression analysis using OriginPro 2020 (MicroCal Software, Inc., Northampton, MA.
(§3) N-in-one assay was performed to investigate human CYP-furathiocarb inhibitory interactions. Furathiocarb (ﬁnal concentrations in the incubation mixture were 1, 5, 25, 50, and 100 µM) was added to the incubation mixture.
(§4) The N-in-one assay, analytical method and authentic standards have been described previously (Abass and Pelkonen 2013; Tolonen et al. 2007; Turpeinen et al. 2005). […]

The target of data set [3] is T2, CYP1A2 (Homo sapiens, UniProt P05177).
T2 construct: from tissue; host or cells: pooled human liver microsomes (n = 10 donors)
T2 sequence (P05177 1-516): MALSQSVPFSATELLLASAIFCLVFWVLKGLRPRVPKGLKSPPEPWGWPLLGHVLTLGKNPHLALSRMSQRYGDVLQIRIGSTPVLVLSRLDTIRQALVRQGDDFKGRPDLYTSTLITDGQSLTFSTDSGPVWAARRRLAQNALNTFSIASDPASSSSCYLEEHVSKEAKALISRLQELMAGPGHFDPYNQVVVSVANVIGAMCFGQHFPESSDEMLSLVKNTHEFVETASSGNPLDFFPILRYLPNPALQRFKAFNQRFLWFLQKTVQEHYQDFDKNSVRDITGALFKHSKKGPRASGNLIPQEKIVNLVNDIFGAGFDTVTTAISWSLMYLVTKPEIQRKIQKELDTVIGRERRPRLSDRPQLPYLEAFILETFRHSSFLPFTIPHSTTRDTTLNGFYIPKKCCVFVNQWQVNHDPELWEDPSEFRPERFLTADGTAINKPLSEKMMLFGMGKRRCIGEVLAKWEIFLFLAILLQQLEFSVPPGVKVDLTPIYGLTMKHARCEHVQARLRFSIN
In words: biochemical. How it is done:
as §1, §2, §3, §4

Data set [4] addresses T3, CYP2C19 (Homo sapiens, UniProt P33261).
T3 construct: from tissue; host or cells: pooled human liver microsomes (n = 10 donors)
The data set is described as follows: biochemical. As to the method: as §1, §2, §3, §4

T3 sequence (P33261 whole entry): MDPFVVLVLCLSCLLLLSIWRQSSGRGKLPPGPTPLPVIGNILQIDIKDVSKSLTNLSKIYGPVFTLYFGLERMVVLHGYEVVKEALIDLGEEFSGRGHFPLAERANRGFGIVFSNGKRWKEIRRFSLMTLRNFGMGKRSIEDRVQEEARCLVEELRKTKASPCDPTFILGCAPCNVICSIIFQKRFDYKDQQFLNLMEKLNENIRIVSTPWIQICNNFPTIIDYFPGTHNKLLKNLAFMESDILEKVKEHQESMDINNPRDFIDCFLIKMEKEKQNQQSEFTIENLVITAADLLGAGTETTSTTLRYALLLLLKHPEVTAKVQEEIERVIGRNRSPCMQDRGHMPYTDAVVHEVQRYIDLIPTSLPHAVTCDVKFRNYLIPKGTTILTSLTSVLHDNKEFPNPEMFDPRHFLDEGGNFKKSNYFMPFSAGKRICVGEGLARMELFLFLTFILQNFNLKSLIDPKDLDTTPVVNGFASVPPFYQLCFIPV

For the compound `CCCCOC(=O)N(C)SN(C)C(=O)Oc1cccc2c1OC(C)(C)C2` [furathiocarb, Furathiocarb], in data set [1], the Km at 30 min is 9.7 ± 3.9 µM. Moreover, the concentration for half-maximal inhibition (IC50) in data set [2], in data set [3] and in data set [4] was 16.5 to 18.5 µM in each case.

What is called Km is the substrate concentration at which the rate is half of its maximum. The IC50 is the point on the concentration scale where inhibition reaches its midpoint.

These data come from publication PMC8989696, “Characterization of furathiocarb metabolism in in-vitro human liver microsomes and recombinant cytochrome P450 enzymes” (Toxicology Reports, 2022).
